Experimental data as given in patent US9394284B2, “Compounds act at multiple prostaglandin receptors giving a general anti-inflammatory response” (Allergan, Inc., priority 2010, dated 2016).

How the values were obtained:
Assay type in all cases: cell-based
[1] = target: T1, human prostanoid EP1 receptor (Homo sapiens, UniProt P34995); assay: FLIPR Ca2+ signaling antagonist assay, EP1 receptor stable cell line; conditions: HEK-293 EBNA stable cell line; standard agonist PGE2; NA = inactive (no antagonism or Kb 10,000 nM); PAg, Ag not defined
T1 construct: expressed in transfected cells
T1 sequence (P34995 1-402): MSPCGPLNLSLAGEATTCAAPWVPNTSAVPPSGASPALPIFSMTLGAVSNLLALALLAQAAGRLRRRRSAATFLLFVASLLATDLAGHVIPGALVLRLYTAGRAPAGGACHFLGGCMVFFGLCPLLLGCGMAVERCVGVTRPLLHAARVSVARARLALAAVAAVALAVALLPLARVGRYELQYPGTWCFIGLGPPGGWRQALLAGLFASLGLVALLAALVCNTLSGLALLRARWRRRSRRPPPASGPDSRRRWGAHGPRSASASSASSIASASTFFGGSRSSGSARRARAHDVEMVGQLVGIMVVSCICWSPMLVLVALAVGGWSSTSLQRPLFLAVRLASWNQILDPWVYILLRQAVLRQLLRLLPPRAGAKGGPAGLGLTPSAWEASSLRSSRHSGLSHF
Protocol: (§1) The above compounds were tested for PG antagonist activity as follows using human recombinant prostanoid receptor (DP1, EP1-4, FP, IP and TP) stable cell lines:
(§2) In order to measure the response of Gs and Gi coupled prostanoid receptors as a Ca^2+ signal, chimeric G protein cDNAs were used. Stable cell lines over-expressing human prostanoid DP1, EP1-4, FP, IP, and TP receptors were established as follows:
(§3) Briefly, human prostanoid DP1, EP2, and EP4 receptor cDNAs were co-transfected with chimeric Gqs cDNA containing a haemagglutanin (HA) epitope; human prostanoid EP3 receptors were co-transfected with chimeric Gqi-HA; human EP1, FP, IP, and TP receptor cDNAs were expressed with no exogenous G-proteins. Gqs and Gqi chimeric cDNAs (Molecular Devices, Sunnyvale, Calif., U.S.A.), as well as cDNAs of prostanoid receptors, were cloned into a pCEP4 vector with a hygromycin B selection marker. Transfection into HEK-293 EBNA (Epstein-Barr virus nuclear antigen) cells was achieved by the FuGENE 6 transfection Reagent (Roche Applied Science, Indianapolis, Ind., USA). Stable transfectants were selected according to hygromycin resistance. Because Gqs and Gqi contained an HA epitope, G-protein expression was detected by Western blotting analysis using anti-mouse HA monoclonal antibody and horseradish peroxidase (HRP)-conjugated secondary antibody, while functional expression of prostanoid receptors was detected by FLIPR screening (Matias et al., 2004). These stable cell lines were validated using previously published antagonists at 10 μM against serial dilutions of standard agonists by FLIPR functional assays for Ca^2+ Signaling (as described below).
(§4) Ca^2+ signaling studies were performed using a FLIPR TETRA system (Molecular Devices, Sunnyvale, Calif., USA) in the 384-format. This is a high-throughput instrument for cell-based assays to monitor Ca^2+ signaling associated with GPCRs and ion channels. Cells were seeded at a density of 5×10^4 cells/well in BioCoat poly-D-lysine coated, black wall, clear bottom 384-well plates (BD Biosciences, Franklin lakes, NJ, USA) and allowed to attach overnight in an incubator at 37° C. The cells were then washed twice with HBSS-HEPES buffer (Hanks' balanced salt solution without bicarbonate and phenol red, 20 mM HEPES, pH 7.4) using an ELx405 Select CW Microplate Washer (BioTek, Winooski, Vt., USA). After 60 min of dye-loading in the dark using the Ca^2+-sensitive dye Fluo-4AM (Invitrogen, Carlsbad, Calif., USA), at a final concentration of 2×10^−6M, the plates were washed 4 times with HBSS-HEPES buffer to remove excess dye and leaving 50 μl of buffer in each well. The plates were then placed in the FLIPR TETRA instrument and allowed to equilibrate at 37° C. AGN-211377 was added in a 25 μl volume to each well to give final concentrations of 0.1 μM, 0.3 μM, 1 μM, 3 μM, 10 μM, and 30 μM; or 0.067 μM, 0.1 μM, 0.2 μM, 0.3 μM, 0.67 μM, and 1 μM for cells over-expressing TP receptors. After 4.5 minutes, a 7-point serial dilution of the standard agonist for the corresponding receptor, in a 25 μl volume was injected at the final concentrations from 10^−11M to 10^−5M in 10-fold serial dilution increments for cells expressing human recombinant DP1, EP1, EP2, EP3, EP4, FP, and IP receptors. The dose range for the standard agonist for human recombinant TP receptors was from 10^−12 M to 10^−6 M. HBSS-HEPES buffer was used as the negative control for the standard agonists. Cells were excited with LED (light emitting diode) excitation at 470-495 nm and emission was measured through an emission filter at 515-575 nm. Assay plates were read for 3.5 minutes using the FLIPR^TETRA. The peak increase in fluorescence intensity was recorded for each well. On each plate, negative controls, dose response of positive controls, and co-treatments of antagonist-agonist for each dose were in triplicates.
(§5) Standard agonists were as follows: DP=BW 245C, EP1-EP4=PGE2, FP=17-phenyl-PGF2α, IP=Cicaprost, and TP=U-46619. […]

[2] = target: T2, human prostanoid DP1 receptor (Homo sapiens, UniProt Q13258); assay: FLIPR Ca2+ signaling antagonist assay, DP1 receptor stable cell line; conditions: HEK-293 EBNA stable cell line; standard agonist BW 245C; NA = inactive (no antagonism or Kb 10,000 nM); PAg, Ag not defined
T2 construct: expressed in transfected cells
T2 sequence (Q13258 1-359): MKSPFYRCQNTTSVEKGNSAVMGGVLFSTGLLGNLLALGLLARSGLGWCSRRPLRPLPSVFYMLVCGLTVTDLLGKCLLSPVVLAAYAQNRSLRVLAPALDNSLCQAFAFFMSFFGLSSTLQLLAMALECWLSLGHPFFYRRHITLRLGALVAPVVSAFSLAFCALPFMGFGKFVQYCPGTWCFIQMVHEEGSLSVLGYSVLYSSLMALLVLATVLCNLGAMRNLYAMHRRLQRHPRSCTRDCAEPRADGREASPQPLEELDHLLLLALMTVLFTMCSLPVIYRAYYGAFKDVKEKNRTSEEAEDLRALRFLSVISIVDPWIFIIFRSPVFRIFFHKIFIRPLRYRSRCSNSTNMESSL
Protocol: as §1, §2, §3, §4, §5

[3] = target: T3, human prostanoid FP receptor (Homo sapiens, UniProt P43088); assay: FLIPR Ca2+ signaling antagonist assay, FP receptor stable cell line; conditions: HEK-293 EBNA stable cell line; standard agonist 17-phenyl-PGF2α; NA = inactive (no antagonism or Kb 10,000 nM); PAg, Ag not defined
T3 construct: expressed in transfected cells
T3 sequence (P43088 whole entry): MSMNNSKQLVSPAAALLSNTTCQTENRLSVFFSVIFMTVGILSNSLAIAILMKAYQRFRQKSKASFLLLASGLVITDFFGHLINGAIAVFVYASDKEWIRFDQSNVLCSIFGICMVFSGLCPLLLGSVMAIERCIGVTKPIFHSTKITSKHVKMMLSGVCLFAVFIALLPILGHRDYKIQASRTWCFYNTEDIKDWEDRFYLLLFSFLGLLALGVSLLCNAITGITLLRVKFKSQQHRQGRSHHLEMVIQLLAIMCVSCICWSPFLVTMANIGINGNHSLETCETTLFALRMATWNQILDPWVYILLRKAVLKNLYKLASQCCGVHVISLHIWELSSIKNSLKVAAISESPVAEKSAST
Protocol: as §1, §2, §3, §4, §5

[4] = target: T4, human prostanoid IP receptor (Homo sapiens, UniProt P43119); assay: FLIPR Ca2+ signaling antagonist assay, IP receptor stable cell line; conditions: HEK-293 EBNA stable cell line; standard agonist Cicaprost; NA = inactive (no antagonism or Kb 10,000 nM); PAg, Ag not defined
T4 construct: expressed in transfected cells
T4 sequence (P43119 whole entry): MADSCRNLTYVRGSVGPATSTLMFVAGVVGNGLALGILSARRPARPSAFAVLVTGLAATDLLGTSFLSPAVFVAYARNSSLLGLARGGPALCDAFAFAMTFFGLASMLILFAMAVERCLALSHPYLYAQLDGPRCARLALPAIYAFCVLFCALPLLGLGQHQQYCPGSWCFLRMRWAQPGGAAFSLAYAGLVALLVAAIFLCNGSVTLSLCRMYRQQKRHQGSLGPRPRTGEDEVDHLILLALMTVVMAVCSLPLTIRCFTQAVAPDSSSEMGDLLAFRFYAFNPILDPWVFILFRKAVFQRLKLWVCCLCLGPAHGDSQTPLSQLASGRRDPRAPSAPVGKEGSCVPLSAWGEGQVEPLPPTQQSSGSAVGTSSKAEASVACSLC
Protocol: as §1, §2, §3, §4, §5

[5] = target: T5, human prostanoid EP4 receptor (Homo sapiens, UniProt P35408); assay: FLIPR Ca2+ signaling antagonist assay, EP4 receptor stable cell line; conditions: HEK-293 EBNA stable cell line; standard agonist PGE2; NA = inactive (no antagonism or Kb 10,000 nM); PAg, Ag not defined
T5 construct: expressed in transfected cells
T5 sequence (P35408 whole entry): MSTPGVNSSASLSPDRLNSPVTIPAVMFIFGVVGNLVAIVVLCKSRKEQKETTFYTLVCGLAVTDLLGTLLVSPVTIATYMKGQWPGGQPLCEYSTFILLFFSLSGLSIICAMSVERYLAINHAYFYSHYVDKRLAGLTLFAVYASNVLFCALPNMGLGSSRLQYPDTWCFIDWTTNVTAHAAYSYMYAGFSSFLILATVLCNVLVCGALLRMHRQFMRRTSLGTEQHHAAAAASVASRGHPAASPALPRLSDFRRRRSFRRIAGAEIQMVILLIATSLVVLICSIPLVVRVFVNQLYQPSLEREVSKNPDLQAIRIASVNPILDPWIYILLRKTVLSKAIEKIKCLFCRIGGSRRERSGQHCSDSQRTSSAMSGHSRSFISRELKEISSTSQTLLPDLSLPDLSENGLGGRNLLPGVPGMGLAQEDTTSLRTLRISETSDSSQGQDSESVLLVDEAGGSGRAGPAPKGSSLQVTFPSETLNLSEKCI
Protocol: as §1, §2, §3, §4, §5

[6] = target: T6, human prostanoid TP receptor (Homo sapiens, UniProt P21731); assay: FLIPR Ca2+ signaling antagonist assay, TP receptor stable cell line; conditions: HEK-293 EBNA stable cell line; standard agonist U-46619; NA = inactive (no antagonism or Kb 10,000 nM); PAg, Ag not defined
T6 construct: expressed in transfected cells
T6 sequence (P21731 1-343): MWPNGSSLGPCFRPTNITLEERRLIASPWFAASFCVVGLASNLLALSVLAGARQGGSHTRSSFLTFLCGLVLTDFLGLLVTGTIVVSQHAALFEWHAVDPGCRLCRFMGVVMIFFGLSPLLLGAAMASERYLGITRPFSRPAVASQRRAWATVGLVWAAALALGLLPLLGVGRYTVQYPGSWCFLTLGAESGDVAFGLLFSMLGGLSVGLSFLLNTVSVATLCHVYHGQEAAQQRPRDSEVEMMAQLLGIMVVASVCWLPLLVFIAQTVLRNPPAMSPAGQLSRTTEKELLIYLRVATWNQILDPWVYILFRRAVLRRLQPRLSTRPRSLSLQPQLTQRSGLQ
Protocol: as §1, §2, §3, §4, §5

[7] = target: T7, human prostanoid EP2 receptor (Homo sapiens, UniProt P43116); assay: FLIPR Ca2+ signaling antagonist assay, EP2 receptor stable cell line; conditions: HEK-293 EBNA stable cell line; standard agonist PGE2; NA = inactive (no antagonism or Kb 10,000 nM); PAg, Ag not defined
T7 construct: expressed in transfected cells
T7 sequence (P43116 whole entry): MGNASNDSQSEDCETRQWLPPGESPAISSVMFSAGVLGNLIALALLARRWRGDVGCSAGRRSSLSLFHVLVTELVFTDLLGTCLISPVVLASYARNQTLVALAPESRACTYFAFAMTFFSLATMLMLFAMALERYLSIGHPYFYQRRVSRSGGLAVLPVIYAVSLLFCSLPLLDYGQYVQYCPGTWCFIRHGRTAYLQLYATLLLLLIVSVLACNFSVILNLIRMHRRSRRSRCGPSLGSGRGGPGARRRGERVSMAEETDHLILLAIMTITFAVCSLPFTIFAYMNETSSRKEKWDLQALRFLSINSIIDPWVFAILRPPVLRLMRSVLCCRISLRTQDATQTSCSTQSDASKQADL
Protocol: as §1, §2, §3, §4, §5

SMILES	Kb [1]	Kb [2]	Kb [3]	Kb [4]	Kb [5]	Kb [6]	Kb [7]	EP1 (FLIPR) Kb [1]	IP (FLIPR) Kb [4]	TP (FLIPR) Kb [6]
CCC(CC)COc1ccc(Br)cc1Cn1nc(CC(C)C(=O)O)cc1C (stereo not drawn) [Example 67, 3-{1-[5-Bromo-2-(2-ethyl-butoxy)-benzyl]-5-methyl-1H-pyrazol-3-yl}-2-methyl-propionic acid]	10 nM	400 nM	140 nM	1.5 µM	70 nM	20 nM	–	–	–	–
Cc1cc(CCC(=O)O)nn1Cc1cc(Br)ccc1OCC(C)C [Example 16, 3-[1-(5-Bromo-2-isobutoxybenzyl)-5-methyl-1H-pyrazol-3-yl]-propionic acid]	14 nM	200 nM	70 nM	–	1000 nM	14 nM	2700 nM	–	–	–
CCC(CC)COc1ccc(C(C)(C)C)cc1Cn1nc(CCC(=O)O)cc1C [Example 49, 3-[1-[2-(2-Ethyl-butoxy)-5-tert-butyl-benzyl]-5-methyl-1H-pyrazol-3-yl]-propionic acid]	40 nM	270 nM	1700 nM	2.5 µM	1800 nM	24 nM	–	–	–	–
Cc1cc(CCC(=O)O)nn1Cc1cc(Cl)ccc1OCC1CCCCC1 [Example 34, 3-[1-(5-Chloro-2-(cyclohexyl-methoxy)benzyl)-5-methyl-1H-pyrazol-3-yl]-propionic acid]	–	240 nM	200 nM	–	2500 nM	–	–	Ag	Ag	Ag
CCC(C)CCOc1ccc(Br)cc1Cn1nc(CCC(=O)O)cc1C (stereo not drawn) [Example 7, 3-[1-(5-Bromo-2-(3-methyl-pentyloxy)-benzyl)-5-methyl-1H-pyrazol-3-yl]-propionic acid]	90 nM	490 nM	90 nM	3.5 µM	600 nM	2 nM	–	–	–	–
COc1ccc(OCC2CCCC2)c(Cn2nc(CCC(=O)O)cc2C)c1 [Example 53, 3-[1-(2-Cyclopentylmethoxy-5-methoxy-benzyl)-5-methyl-1H-pyrazol-3-yl]-propionic acid]	600 nM	1500 nM	1900 nM	6.9 µM	1890 nM	700 nM	–	–	–	–
CCC(CC)COc1ccc(C(F)(F)F)cc1Cn1nc(CCC(=O)O)cc1C [Example 46, 3-[1-[2-(2-Ethyl-butoxy)-5-trifluoromethyl-benzyl]-5-methyl-1H-pyrazol-3-yl]-propionic acid]	40 nM	700 nM	240 nM	2.1 µM	170 nM	3 nM	–	–	–	–
CCC(C)COc1ccc(Br)cc1Cn1nc(CCC(=O)O)cc1C (stereo not drawn) [Example 10, 3-[1-(5-Bromo-2-(2-methyl-butoxy)-benzyl)-5-methyl-1H-pyrazol-3-yl]-propionic acid]	12 nM	360 nM	70 nM	4.2 µM	100 nM	2 nM	–	–	–	–
CCC(CC)COc1ccc(C#N)cc1Cn1nc(CCC(=O)O)cc1C [Example 60, 3-{1-[5-Cyano-2-(2-ethyl-butoxy)-benzyl]-5-methyl-1H-pyrazol-3-yl}-propionic acid]	2100 nM	4400 nM	1400 nM	5.4 µM	2400 nM	120 nM	–	–	–	–
CCC(CC)COc1ccc(C)cc1Cn1nc(CCC(=O)O)cc1C [Example 65, 3-{1-[2-(2-Ethyl-butoxy)-5-methyl-benzyl]-5-methyl-1H-pyrazol-3-yl}-propionic acid]	150 nM	550 nM	1300 nM	2.3 µM	100 nM	10 nM	–	–	–	–
Cc1cc(CCC(=O)O)nn1Cc1cc(Cl)ccc1OCC1(C(F)(F)F)CCC1 [Example 38, 3-[1-(5-Chloro-2-(1-trifluoromethylcyclobutylmethoxy)benzyl)-5-methyl-1H-pyrazol-3-yl]-propionic acid]	140 nM	1900 nM	600 nM	6 µM	3600 nM	8 nM	–	–	–	–
